Calls of active or inactive are those of the source. The rule behind the calls is not given here.
Legend:
Type in all cases: cell-based
[1] = target: T1, Nuclear factor erythroid 2-related factor 2 (Mus musculus) (UniProt Q60795); test: Activation of Nrf2 in mouse Heap1c1c7 cells assessed as induction of NAD(P)H:quinone reductase activity at 50 uM relative to control
T1 sequence (whole entry): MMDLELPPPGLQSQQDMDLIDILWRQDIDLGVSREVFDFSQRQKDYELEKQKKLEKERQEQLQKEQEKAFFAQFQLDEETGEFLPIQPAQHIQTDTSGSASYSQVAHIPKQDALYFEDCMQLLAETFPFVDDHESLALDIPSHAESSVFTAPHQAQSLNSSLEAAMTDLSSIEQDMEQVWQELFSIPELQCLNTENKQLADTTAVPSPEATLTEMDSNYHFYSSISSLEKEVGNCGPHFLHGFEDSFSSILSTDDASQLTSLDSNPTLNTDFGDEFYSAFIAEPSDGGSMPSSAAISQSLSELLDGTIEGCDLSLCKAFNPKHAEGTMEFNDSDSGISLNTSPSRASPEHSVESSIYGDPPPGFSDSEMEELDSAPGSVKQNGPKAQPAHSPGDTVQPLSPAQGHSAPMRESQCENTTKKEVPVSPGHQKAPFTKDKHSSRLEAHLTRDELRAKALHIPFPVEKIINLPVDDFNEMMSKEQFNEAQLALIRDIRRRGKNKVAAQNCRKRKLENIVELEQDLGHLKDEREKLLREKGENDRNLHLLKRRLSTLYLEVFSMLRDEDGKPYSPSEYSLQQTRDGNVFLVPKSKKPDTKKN

[2] = target: T1, Nuclear factor erythroid 2-related factor 2 (Mus musculus); test: Activation of Nrf2 in mouse Heap1c1c7 cells assessed as induction of NAD(P)H:quinone reductase activity at 25 uM relative to control
[3] = target: T1, Nuclear factor erythroid 2-related factor 2 (Mus musculus); test: Activation of Nrf2 in mouse Heap1c1c7 cells assessed as induction of NAD(P)H:quinone reductase activity at 12.5 uM relative to control
[4] = target: T1, Nuclear factor erythroid 2-related factor 2 (Mus musculus); test: Activation of Nrf2 in mouse Heap1c1c7 cells assessed as induction of NAD(P)H:quinone reductase activity at 100 uM relative to control
[5] = target: T2, Nuclear factor erythroid 2-related factor 2 (Homo sapiens) (UniProt Q16236); test: Activation of Nrf2 in human BEAS2B cells assessed as upregulation of NQO1 protein expression at 20 uM after 12 hrs by immunoblot analysis
T2 sequence (whole entry): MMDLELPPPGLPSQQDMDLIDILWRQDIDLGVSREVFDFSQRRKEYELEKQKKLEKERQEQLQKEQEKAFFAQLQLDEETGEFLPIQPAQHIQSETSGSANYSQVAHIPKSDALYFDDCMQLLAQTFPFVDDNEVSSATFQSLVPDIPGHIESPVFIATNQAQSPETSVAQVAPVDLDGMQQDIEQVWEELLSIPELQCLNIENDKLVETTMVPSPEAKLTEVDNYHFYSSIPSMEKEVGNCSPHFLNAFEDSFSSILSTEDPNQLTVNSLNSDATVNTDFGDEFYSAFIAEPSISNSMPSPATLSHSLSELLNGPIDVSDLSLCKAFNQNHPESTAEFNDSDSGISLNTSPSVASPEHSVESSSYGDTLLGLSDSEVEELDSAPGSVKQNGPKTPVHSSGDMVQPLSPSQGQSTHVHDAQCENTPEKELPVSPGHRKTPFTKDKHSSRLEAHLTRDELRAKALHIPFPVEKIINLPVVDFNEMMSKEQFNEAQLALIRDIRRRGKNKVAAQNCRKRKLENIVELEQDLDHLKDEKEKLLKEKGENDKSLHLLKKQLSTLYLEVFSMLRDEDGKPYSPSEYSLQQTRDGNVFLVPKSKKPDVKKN

[6] = target: T2, Nuclear factor erythroid 2-related factor 2 (Homo sapiens); test: Activation of Nrf2 in human BEAS2B cells assessed as upregulation of gamma-GCS protein expression at 20 uM after 12 hrs by immunoblot analysis
[7] = target: T2, Nuclear factor erythroid 2-related factor 2 (Homo sapiens); test: Activation of Nrf2 in human BEAS2B cells assessed as upregulation of Nrf2 protein expression at 20 uM after 12 hrs by immunoblot analysis

**Q.** For `CC(C)=CCc1c(O)ccc(C(=O)/C=C/c2ccc(O)cc2)c1O`, which fold change (FC) [1] is on record?
**A.** 1.69

**Q.** `O=C1C[C@@H](c2ccc(O)c(O)c2)Oc2cc(O)cc(O)c21` was tested. Which fold change (FC) [1] did it give?
**A.** 1.36

**Q.** `COc1cc(/C=C/C(=O)C/C(C)=C/Cc2c(O)ccc(C(=O)/C=C/c3ccc(O)cc3)c2O)ccc1O` was tested. Which fold change (FC) [2] did it give?
**A.** 1.49

**Q.** How did the fold change (FC) [3] turn out when `C/C(=C/Cc1c(O)ccc(C(=O)/C=C/c2ccc(O)cc2)c1O)CC(=O)/C=C/c1ccc(O)cc1` was run?
**A.** 1.31

**Q.** Which fold change (FC) [4] does the source give for `C/C(=C\Cc1c(O)ccc(C(=O)/C=C/c2ccc(O)cc2O)c1O)CO` here?
**A.** 1.61

**Q.** For `CC(C)(C)c1cc(O)ccc1O`, which Activity [5] is on record?
**A.** Active

**Q.** What about the Activity [6] of the same compound?
**A.** Active

**Q.** What about the Activity [7] of the same compound?
**A.** Active

**Q.** For `CC(C)=CCc1c(-c2ccc(O)cc2O)oc2cc(O)cc(O)c2c1=O`, which fold change (FC) [4] is on record?
**A.** 1.31

**Q.** For `CC(C)/C=C/c1c(O)cc2oc(-c3ccc(O)cc3O)c(/C=C/C(C)C)c(=O)c2c1O`, which fold change (FC) [2] is on record?
**A.** 1.4

**Q.** For `COc1cc([C@@H]2CC(=O)c3c(O)cc(O)cc3O2)ccc1O`, which fold change (FC) [1] is on record?
**A.** 1.51

**Q.** `O=c1cc(-c2ccc(O)c(-c3c(O)cc(O)c4c(=O)cc(-c5ccc(O)cc5)oc34)c2)oc2cc(O)cc(O)c12` was tested. Which fold change (FC) [1] did it give?
**A.** 1.42

**Q.** For `C/C(=C\Cc1c(O)ccc(C(=O)/C=C/c2ccc(O)cc2)c1O)CC(=O)/C=C/c1ccc(O)cc1`, which fold change (FC) [2] is on record?
**A.** 1.57

**Q.** How did the fold change (FC) [4] turn out when `O=C1CC(c2ccc(O)c(O)c2)Oc2cc(O[C@@H]3O[C@H](CO)[C@@H](O)[C@H](O)[C@H]3O)cc(O)c21` (stereo partly specified) was run?
**A.** 1.66

**Q.** With `CC(C)=CCc1c(O)ccc(C(=O)/C=C/c2ccc(O)cc2O)c1O` as the compound, how does the fold change (FC) [4] read?
**A.** 1.34

**Q.** `COc1cc(/C=C/C(=O)C/C(C)=C\Cc2c(O)ccc(C(=O)/C=C/c3ccc(O)cc3)c2O)ccc1O` was tested. Which fold change (FC) [3] did it give?
**A.** 1.46

**Q.** With `CC(C)=CCc1c(O)ccc2c1OC(c1ccc(O)cc1O)CC2=O` (stereo unspecified) as the compound, how does the fold change (FC) [4] read?
**A.** 1.75

**Q.** Which fold change (FC) [4] does the source give for `O=C1c2c(O)cc(O)cc2OC(c2ccc(O)cc2)C1O` (stereo unspecified) here?
**A.** 1.49

**Q.** Which fold change (FC) [4] does the source give for `CC(C)=CCc1c(O)cc2oc3c(c(=O)c2c1O)C(C=C(C)C)Oc1cc(O)ccc1-3` (stereo unspecified) here?
**A.** 1.31

**Q.** Which fold change (FC) [3] does the source give for `O=c1c(O)c(-c2ccc(O)c(O)c2)oc2cc(O)cc(O)c12` here?
**A.** 1.36

**Q.** Which fold change (FC) [1] does the source give for `O=c1c(O)c(-c2ccc(O)cc2)oc2cc(O)cc(O)c12` here?
**A.** 1.51

**Q.** `C/C(=C/Cc1c(O)ccc(C(=O)/C=C/c2ccc(O)cc2O)c1O)CC(=O)/C=C/c1ccc(O)cc1` was tested. Which fold change (FC) [2] did it give?
**A.** 1.39

**Q.** How did the fold change (FC) [4] turn out when `COc1ccc([C@@H]2CC(=O)c3c(cc(OC)c(OC)c3OC)O2)cc1OC` was run?
**A.** 1.81

**Q.** Which fold change (FC) [4] does the source give for `C/C(=C\Cc1c(O)ccc(C(=O)/C=C/c2ccc(O)cc2)c1O)CO` here?
**A.** 1.43

**Q.** For `C/C(=C/Cc1c(O)ccc(C(=O)/C=C/c2ccc(O)cc2)c1O)CO`, which fold change (FC) [4] is on record?
**A.** 1.52

**Q.** With `CC(C)=CCc1c(O)cc2oc(-c3ccc(O)cc3O)c(/C=C/C(C)C)c(=O)c2c1O` as the compound, how does the fold change (FC) [1] read?
**A.** 1.86

Source: ChEMBL document CHEMBL4229568, “Discovery of natural flavonoids as activators of Nrf2-mediated defense system: Structure-activity relationship and inhibition of intracellular oxidative insults” (Bioorg Med Chem, 2018)
